Source: US10507248B2, “Hydrophobic core carrier compositions for delivery of therapeutic agents, methods of making and using the same” (PharmaIn Corporation, priority 2005, dated 2019)

Columns and labels:
[1] = tested on: streptozotocin diabetic rats; assay: Treatment of streptozotocin diabetic rats for 4 weeks; assay type: in vivo, Sprague-Dawley rats
Protocol: FIG. 45. […] Prior to treatment the blood glucose levels taken every 2 days for 6 days prior to treatment are between 300-600 mg/dl. After randomization the average blood sugar level of each group are between 421 and 433 mg/dl. Rats were treated every 2 days subcutaneously. […] Non-fasting sugar levels taken every 2 days were added together to obtain area under the curve (AUC) for each animal to average out cyclical variability in each animal.
FIG. 46. This is a graph showing the average body weight of streptozotocin diabetic rats at the end of the 4 week treatment period (+/−standard deviation; n=4) that started at 13th day after diabetes induction with 60 mg/kg streptozotocin. The starting weights of all animals prior to streptozotocin treatment are within 240 to 260 grams.
FIG. 47. […] The islets were located and the number of BrDU positive nuclei in each islet was counted.
Briefly for this in vivo protocol, 12-week old male Sprague-Dawley (HSD) rats (Harlan, Indianapolis, Ind.) were housed at 23±1° C. in a 12:12-h light:dark cycle, and were given access to food and water ad libitium (diet LM-485, Teklad, Madison, Wis.). […] Non-fasting blood sugar levels were monitored daily from day 2 by tail-tip snip blood collection (5 ul) and blood sugar levels were measured using Glucometer (Ascensia Elite, Bayer Co. Mishawaka, Ind.) and test strips (Bayer Co. Mishawaka, Ind.). […]

[2] = in vivo; cited from earlier work
DPP-9 = DPP-9 (Homo sapiens, UniProt Q86TI2); conditions: concentrations approximating those from therapeutic doses; cited from earlier work
DPP-8 = DPP-8 (Homo sapiens, UniProt Q6V1X1); conditions: concentrations approximating those from therapeutic doses; cited from earlier work
[3] = native peptides; cited from earlier work

DPP-8, sequence (Q6V1X1 whole entry): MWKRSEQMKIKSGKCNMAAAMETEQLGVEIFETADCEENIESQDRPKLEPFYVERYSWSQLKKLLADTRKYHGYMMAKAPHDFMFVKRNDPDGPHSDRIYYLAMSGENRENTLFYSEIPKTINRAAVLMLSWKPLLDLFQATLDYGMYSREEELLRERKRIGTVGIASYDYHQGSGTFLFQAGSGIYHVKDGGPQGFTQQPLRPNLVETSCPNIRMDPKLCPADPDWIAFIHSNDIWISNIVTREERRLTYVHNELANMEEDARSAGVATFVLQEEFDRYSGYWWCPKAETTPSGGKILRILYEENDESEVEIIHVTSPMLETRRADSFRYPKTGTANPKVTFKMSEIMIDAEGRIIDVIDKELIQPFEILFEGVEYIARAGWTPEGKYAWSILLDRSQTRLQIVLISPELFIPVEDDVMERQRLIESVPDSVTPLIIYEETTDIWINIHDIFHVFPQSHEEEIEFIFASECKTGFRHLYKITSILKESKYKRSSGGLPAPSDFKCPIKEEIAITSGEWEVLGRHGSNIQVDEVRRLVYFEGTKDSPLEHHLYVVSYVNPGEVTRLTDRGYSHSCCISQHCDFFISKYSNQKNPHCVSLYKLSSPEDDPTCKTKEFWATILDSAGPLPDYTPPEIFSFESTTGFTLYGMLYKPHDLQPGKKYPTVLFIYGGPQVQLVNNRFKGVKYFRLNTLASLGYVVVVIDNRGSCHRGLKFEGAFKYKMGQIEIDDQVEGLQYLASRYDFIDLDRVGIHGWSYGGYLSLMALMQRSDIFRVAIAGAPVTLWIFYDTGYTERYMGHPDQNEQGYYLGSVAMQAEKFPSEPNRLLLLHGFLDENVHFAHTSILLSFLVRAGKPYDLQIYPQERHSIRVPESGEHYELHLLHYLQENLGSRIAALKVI
DPP-9, sequence (Q86TI2 whole entry): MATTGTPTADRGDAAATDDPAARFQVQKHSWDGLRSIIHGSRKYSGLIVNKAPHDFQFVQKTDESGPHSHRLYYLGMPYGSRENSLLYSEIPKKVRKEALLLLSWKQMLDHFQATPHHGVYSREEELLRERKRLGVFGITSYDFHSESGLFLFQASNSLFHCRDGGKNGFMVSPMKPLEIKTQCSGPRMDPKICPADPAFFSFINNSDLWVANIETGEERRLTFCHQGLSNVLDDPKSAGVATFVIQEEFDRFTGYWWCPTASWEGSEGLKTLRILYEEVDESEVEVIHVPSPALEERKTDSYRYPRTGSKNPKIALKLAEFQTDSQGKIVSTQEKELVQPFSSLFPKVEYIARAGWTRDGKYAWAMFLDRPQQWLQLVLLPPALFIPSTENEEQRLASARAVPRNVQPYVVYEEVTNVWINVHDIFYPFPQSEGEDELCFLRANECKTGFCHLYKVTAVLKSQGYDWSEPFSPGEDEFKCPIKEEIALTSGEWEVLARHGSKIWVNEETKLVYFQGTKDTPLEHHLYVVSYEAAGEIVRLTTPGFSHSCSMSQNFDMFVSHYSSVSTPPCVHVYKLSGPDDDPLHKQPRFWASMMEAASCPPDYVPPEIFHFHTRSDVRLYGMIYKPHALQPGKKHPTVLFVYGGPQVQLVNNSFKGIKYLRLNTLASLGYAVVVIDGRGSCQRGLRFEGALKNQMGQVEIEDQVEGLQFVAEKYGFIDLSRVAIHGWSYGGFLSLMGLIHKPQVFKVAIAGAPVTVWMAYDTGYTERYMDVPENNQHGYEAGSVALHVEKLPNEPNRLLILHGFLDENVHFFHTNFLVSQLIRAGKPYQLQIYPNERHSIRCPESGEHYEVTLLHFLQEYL

CC[C@H](C)[C@H](NC(=O)[C@H](Cc1ccccc1)NC(=O)[C@H](CCC(=O)O)NC(=O)[C@H](CCCCN)NC(=O)[C@H](C)NC(=O)[C@H](C)NC(=O)[C@H](CCC(N)=O)NC(=O)CNC(=O)[C@H](CCC(=O)O)NC(=O)[C@H](CC(C)C)NC(=O)[C@H](Cc1ccc(O)cc1)NC(=O)[C@H](CO)NC(=O)[C@H](CO)NC(=O)[C@@H](NC(=O)[C@H](CC(=O)O)NC(=O)[C@H](CO)NC(=O)[C@@H](NC(=O)[C@H](Cc1ccccc1)NC(=O)[C@@H](NC(=O)CNC(=O)[C@H](CCC(=O)O)NC(=O)[C@H](C)NC(=O)[C@@H](N)Cc1c[nH]cn1)[C@@H](C)O)[C@@H](C)O)C(C)C)C(=O)N[C@@H](C)C(=O)N[C@@H](Cc1c[nH]c2ccccc12)C(=O)N[C@@H](CC(C)C)C(=O)N[C@H](C(=O)N[C@@H](CCCCN)C(=O)NCC(=O)N[C@@H](CCCNC(=N)N)C(N)=O)C(C)C [GLP-1, GLP-1 (7-36 amide)]
BrdU positive nuclei (cell divisions) in the islets ([1]; pancreas histology after 4 weeks, versus PBS or empty carrier): significantly more cell divisions | body weight at the end of the 4 week treatment ([1]; s.c. every 2 days for 4 weeks, 20 ug GLP-1): greater variability in response

COc1ccc2[nH]c([S+]([O-])Cc3ncc(C)c(OC)c3C)nc2c1 (stereo not drawn) [Omeprazole]
LD50 [2]: > 4000 mg/kg

N[C@@H](CC(=O)N1CCn2c(nnc2C(F)(F)F)C1)Cc1cc(F)c(F)cc1F [Sitagliptin, 7-[(3R)-3-amino-1-oxo-4-(2,4,5-trifluorophenyl)butyl]-5,6,7,8-tetrahydro-3-(trifluoromethyl)-1,2,4-triazolo[4,3-a]pyrazine phosphate (1:1) monohydrate]
inhibition of DPP-9 activity in vitro (DPP-9): does not inhibit | inhibition of DPP-8 activity in vitro (DPP-8): does not inhibit

native gastrin: native peptide hormone with short biological half-life
biological half-life [3]: few minutes
